Measurements published in ChEMBL document CHEMBL4680060, “Polybasic peptide-levofloxacin conjugates potentiate fluoroquinolones and other classes of antibiotics against multidrug-resistant Gram-negative bacteria” (Medchemcomm, 2019).
Converted amounts (≈) assume the structure as drawn. The source made the active and inactive calls. The rule behind the calls is not given here.

Columns and labels:
Acinetobacter baumannii [1] = experiment: Synergistic antibacterial activity against Acinetobacter baumannii ATCC 17978 in presence of moxifloxacin by Checkerboard assay; assay type: functional, organism-based
Pseudomonas aeruginosa [2] = experiment: Potentiation of moxifloxacin-induced antibacterial activity against wild type Pseudomonas aeruginosa PAO1 assessed as moxifloxacin MIC measured after 18 hrs by CLSI protocol based microbroth dilution method (reference value: 1 ug/ml); assay type: functional
Pseudomonas aeruginosa [3] = experiment: Synergistic antibacterial activity against multidrug resistant Pseudomonas aeruginosa PA101885 in presence of levofloxacin by Checkerboard assay; assay type: functional, organism-based
Staphylococcus aureus = experiment: Antibacterial activity against methicillin-resistant Staphylococcus aureus clinical isolate CAN-ICU 61589 assessed as inhibition of visible growth incubated for 18 hrs by CLSI protocol based microbroth dilution method; assay type: functional
Pseudomonas aeruginosa [4] = experiment: Potentiation of levofloxacin-induced antibacterial activity against wild type Pseudomonas aeruginosa PAO1 assessed as levofloxacin MIC measured after 18 hrs by CLSI protocol based microbroth dilution method (reference value: 0.5 ug/ml); assay type: functional
Pseudomonas aeruginosa [5] = experiment: Synergistic antibacterial activity against multidrug resistant Pseudomonas aeruginosa PA264 in presence of levofloxacin by Checkerboard assay; assay type: functional, organism-based
Enterococcus faecalis = experiment: Antibacterial activity against Enterococcus faecalis ATCC 29212 assessed as inhibition of visible growth incubated for 18 hrs by CLSI protocol based microbroth dilution method; assay type: functional
Pseudomonas aeruginosa [6] = experiment: Synergistic antibacterial activity against wild type Pseudomonas aeruginosa PAO1 assessed as fractional inhibitory concentration index in presence of moxifloxacin by Checkerboard assay; assay type: functional
Klebsiella pneumoniae [7] = experiment: Synergistic antibacterial activity against Klebsiella pneumoniae 116381 in presence of ciprofloxacin by Checkerboard assay; assay type: functional, organism-based
Acinetobacter baumannii [8] = experiment: Synergistic antibacterial activity against multidrug resistant Acinetobacter baumannii AB027 assessed as fractional inhibitory concentration index in presence of levofloxacin by Checkerboard assay; assay type: functional
Pseudomonas aeruginosa [9] = experiment: Additive antibacterial activity against MexAB-OprM efflux pump deficient Pseudomonas aeruginosa PAO200 in presence of ciprofloxacin by Checkerboard assay; assay type: functional, organism-based
Pseudomonas aeruginosa [10] = experiment: Synergistic antibacterial activity against multidrug resistant Pseudomonas aeruginosa PA262 in presence of levofloxacin by Checkerboard assay; assay type: functional, organism-based
Pseudomonas aeruginosa [11] = experiment: Potentiation of moxifloxacin-induced antibacterial activity against wild type Pseudomonas aeruginosa PAO1 assessed as […] measured after 18 hrs by CLSI protocol based microbroth dilution method relative to moxifloxacin MIC; assay type: functional
Klebsiella pneumoniae [12] = experiment: Synergistic antibacterial activity against Klebsiella pneumoniae 116381 in presence of levofloxacin by Checkerboard assay; assay type: functional, organism-based
Escherichia coli [13] = experiment: Antibacterial activity against Escherichia coli ATCC 25922 assessed as inhibition of visible growth incubated for 18 hrs by CLSI protocol based microbroth dilution method; assay type: functional
Pseudomonas aeruginosa [14] = experiment: Potentiation of novobiocin-induced antibacterial activity against wild type Pseudomonas aeruginosa PAO1 measured after 18 hrs by CLSI protocol based microbroth dilution method; assay type: functional, organism-based
Pseudomonas aeruginosa [15] = experiment: Potentiation of aztreonam-induced antibacterial activity against wild type Pseudomonas aeruginosa PAO1 measured after 18 hrs by CLSI protocol based microbroth dilution method; assay type: functional, organism-based
Klebsiella pneumoniae [16] = experiment: Synergistic antibacterial activity against Klebsiella pneumoniae 116381 in presence of moxifloxacin by Checkerboard assay; assay type: functional, organism-based
Pseudomonas aeruginosa [17] = experiment: Potentiation of trimethoprim-induced antibacterial activity against wild type Pseudomonas aeruginosa PAO1 measured after 18 hrs by CLSI protocol based microbroth dilution method; assay type: functional, organism-based
Pseudomonas aeruginosa [18] = experiment: Additive antibacterial activity against MexAB-OprM, MexCD-OprJ, MexEF-OprN, MexJK and MexXY efflux pumps deficient Pseudomonas aeruginosa PAO750 in presence of moxifloxacin by Checkerboard assay; assay type: functional, organism-based
Pseudomonas aeruginosa [19] = experiment: Antibacterial activity against Pseudomonas aeruginosa ATCC 27853 assessed as inhibition of visible growth incubated for 18 hrs by CLSI protocol based microbroth dilution method; assay type: functional
Pseudomonas aeruginosa [20] = experiment: Additive antibacterial activity against MexAB-OprM efflux pump deficient Pseudomonas aeruginosa PAO200 in presence of moxifloxacin by Checkerboard assay; assay type: functional, organism-based
Acinetobacter baumannii [21] = experiment: Synergistic antibacterial activity against Acinetobacter baumannii ATCC 17978 in presence of ciprofloxacin by Checkerboard assay; assay type: functional, organism-based
Acinetobacter baumannii [22] = experiment: Antibacterial activity against Acinetobacter baumannii clinical isolate CAN-ICU 63169 assessed as inhibition of visible growth incubated for 18 hrs by CLSI protocol based microbroth dilution method; assay type: functional
Enterobacter cloacae = experiment: Antibacterial activity against Enterobacter cloacae 117029 assessed as inhibition of visible growth incubated for 18 hrs by CLSI protocol based microbroth dilution method; assay type: functional
[23] = tested on: Staphylococcus epidermidis; experiment: Antibacterial activity against methicillin-susceptible Staphylococcus epidermidis clinical isolate CANWARD-2008 81388 assessed as inhibition of visible growth incubated for 18 hrs by CLSI protocol based microbroth dilution method; assay type: functional
Pseudomonas aeruginosa [24] = experiment: Synergistic antibacterial activity against multidrug resistant Pseudomonas aeruginosa PA262 in presence of ciprofloxacin by Checkerboard assay; assay type: functional, organism-based
Pseudomonas aeruginosa [25] = experiment: Potentiation of pleuromutilin-induced antibacterial activity against wild type Pseudomonas aeruginosa PAO1 measured after 18 hrs by CLSI protocol based microbroth dilution method; assay type: functional, organism-based
Klebsiella pneumoniae [26] = experiment: Antibacterial activity against Klebsiella pneumoniae 116381 assessed as inhibition of visible growth incubated for 18 hrs by CLSI protocol based microbroth dilution method; assay type: functional
[27] = Hemolytic activity in pig erythrocyte at 512 ug/ml incubated for 1 hr by microplate reader assay relative to control; assay type: ADME, cell-based, Sus scrofa; conditions: pig erythrocytes, at 512 µg/mL, read-out: Activity
Pseudomonas aeruginosa [28] = experiment: Synergistic antibacterial activity against multidrug resistant Pseudomonas aeruginosa PA264 in presence of ciprofloxacin by Checkerboard assay; assay type: functional, organism-based
[29] = tested on: Stenotrophomonas maltophilia; experiment: Antibacterial activity against Stenotrophomonas maltophilia clinical isolate CAN-ICU 62584 assessed as inhibition of visible growth incubated for 18 hrs by CLSI protocol based microbroth dilution method; assay type: functional
Pseudomonas aeruginosa [30] = experiment: Synergistic antibacterial activity against multidrug resistant Pseudomonas aeruginosa PA101885 in presence of moxifloxacin by Checkerboard assay; assay type: functional, organism-based
Escherichia coli [31] = experiment: Synergistic antibacterial activity against Escherichia coli 94474 in presence of levofloxacin by Checkerboard assay; assay type: functional, organism-based
Escherichia coli [32] = experiment: Synergistic antibacterial activity against Escherichia coli 107115 in presence of levofloxacin by Checkerboard assay; assay type: functional, organism-based
Pseudomonas aeruginosa [33] = experiment: Synergistic antibacterial activity against multidrug resistant Pseudomonas aeruginosa PA259 in presence of ciprofloxacin by Checkerboard assay; assay type: functional, organism-based
Pseudomonas aeruginosa [34] = experiment: Potentiation of ciprofloxacin-induced antibacterial activity against wild type Pseudomonas aeruginosa PAO1 assessed as ciprofloxacin MIC measured after 18 hrs by CLSI protocol based microbroth dilution method (reference value: 0.125 ug/ml); assay type: functional
Escherichia coli [35] = experiment: Synergistic antibacterial activity against Escherichia coli 107115 in presence of moxifloxacin by Checkerboard assay; assay type: functional, organism-based
Pseudomonas aeruginosa [36] = experiment: Potentiation of clindamycin-induced antibacterial activity against wild type Pseudomonas aeruginosa PAO1 measured after 18 hrs by CLSI protocol based microbroth dilution method; assay type: functional, organism-based
Pseudomonas aeruginosa [37] = experiment: Synergistic antibacterial activity against multidrug resistant Pseudomonas aeruginosa PA100036 in presence of levofloxacin by Checkerboard assay; assay type: functional, organism-based
Pseudomonas aeruginosa [38] = experiment: Synergistic antibacterial activity against multidrug resistant Pseudomonas aeruginosa PA260 in presence of ciprofloxacin by Checkerboard assay; assay type: functional, organism-based
Pseudomonas aeruginosa [39] = experiment: Synergistic antibacterial activity against multidrug resistant Pseudomonas aeruginosa PA264 in presence of moxifloxacin by Checkerboard assay; assay type: functional, organism-based
Pseudomonas aeruginosa [40] = experiment: Synergistic antibacterial activity against multidrug resistant Pseudomonas aeruginosa PA259 in presence of moxifloxacin by Checkerboard assay; assay type: functional, organism-based

With C[C@H]1COc2c(N3CCN(C)CC3)c(F)cc3c(=O)c(C(=O)NCCCCCCCCCCCC(=O)N[C@@H](CCN)C(=O)N[C@@H](CCN)C(N)=O)cn1c23 the Activity (Acinetobacter baumannii [1]) was “inactive”, the MIC (Pseudomonas aeruginosa [2]) was 0.25 µg/mL and the Activity (Pseudomonas aeruginosa [3]) was “Active”. For the same compound, the MIC (Staphylococcus aureus) was 128 µg/mL (≈ 169 µM), the MIC (Pseudomonas aeruginosa [4]) was 0.063 µg/mL and the Activity (Pseudomonas aeruginosa [5]) was “Active”. The MIC (Enterococcus faecalis) was over 128 µg/mL, the “fractional inhibitory concentration index (FICI)” value (Pseudomonas aeruginosa [6]) was 0.5 and the Activity (Klebsiella pneumoniae [7]) was “Active”. For the same compound, the “fractional inhibitory concentration index (FICI)” value (Acinetobacter baumannii [8]) was 0.37, the Activity (Pseudomonas aeruginosa [9]) was “Active” and the Activity (Pseudomonas aeruginosa [10]) was “Active”. For the same compound, the Ratio (Pseudomonas aeruginosa [11]) was 4, the Activity (Klebsiella pneumoniae [12]) was “Active” and the MIC (Escherichia coli [13]) was 64 µg/mL (≈ 84.4 µM). The Activity (Pseudomonas aeruginosa [14]) was “Active”, the Activity (Pseudomonas aeruginosa [15]) was “inactive” and the Activity (Klebsiella pneumoniae [16]) was “Active”. For the same compound, the Activity (Pseudomonas aeruginosa [17]) was “Active”, the Activity (Pseudomonas aeruginosa [18]) was “Active” and the MIC (Pseudomonas aeruginosa [19]) was over 128 µg/mL. The Activity (Pseudomonas aeruginosa [20]) was “Active”, the Activity (Acinetobacter baumannii [21]) was “inactive” and the MIC (Acinetobacter baumannii [22]) was over 128 µg/mL. The MIC (Enterobacter cloacae) was 128 µg/mL (≈ 169 µM), the MIC [23] was 64 µg/mL (≈ 84.4 µM) and the Activity (Pseudomonas aeruginosa [24]) was “Active”. The Activity (Pseudomonas aeruginosa [25]) was “Active”, the MIC (Klebsiella pneumoniae [26]) was over 128 µg/mL and the hemolysis at 1 h, 512 ug/ml [27] was under 1%. For the same compound, the Activity (Pseudomonas aeruginosa [28]) was “Active”, the MIC [29] was over 128 µg/mL and the Activity (Pseudomonas aeruginosa [30]) was “Active”. For the same compound, the Activity (Escherichia coli [31]) was “Active”, the Activity (Escherichia coli [32]) was “Active” and the Activity (Pseudomonas aeruginosa [33]) was “Active”. The MIC (Pseudomonas aeruginosa [34]) was 0.031 µg/mL, the Activity (Escherichia coli [35]) was “Active” and the Activity (Pseudomonas aeruginosa [36]) was “Active”. For the same compound, the Activity (Pseudomonas aeruginosa [37]) was “Active”, the Activity (Pseudomonas aeruginosa [38]) was “Active” and the Activity (Pseudomonas aeruginosa [39]) was “Active”. For the same compound, the Activity (Pseudomonas aeruginosa [40]) was “Active”.
